According to PubChem BioAssay (NCI):
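Growth conditions: 96-well plates. Treatment: test compound, 48 hours, 5 concentrations. Analysis: linear interpolation between bracketing concentrations; unreached endpoints set to highest concentration. Definition used: TGI = concentration required for complete inhibition of growth.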

Assays:
Assay in all cases: NCI anticancer screen, dose series, 48 h
HCT-116 colon = tested on: HCT-116 colon
SF-539 CNS = tested on: SF-539 CNS
SR leukemia = tested on: SR leukemia
CAKI-1 renal = tested on: CAKI-1 renal
SK-MEL-5 melanoma = tested on: SK-MEL-5 melanoma
HOP-92 NSCLC = tested on: HOP-92 NSCLC
MDA-MB-231 breast = tested on: MDA-MB-231 breast
SK-OV-3 ovarian = tested on: SK-OV-3 ovarian
SF-268 CNS = tested on: SF-268 CNS
KM12 colon = tested on: KM12 colon
HS 578T breast = tested on: HS 578T breast
RPMI-8226 leukemia = tested on: RPMI-8226 leukemia
PC-3 prostate = tested on: PC-3 prostate
HL-60(TB) leukemia = tested on: HL-60(TB) leukemia
786-0 renal = tested on: 786-0 renal
U251 CNS = tested on: U251 CNS
UO-31 renal = tested on: UO-31 renal
NCI/ADR-RES ovarian = tested on: NCI/ADR-RES ovarian
DU-145 prostate = tested on: DU-145 prostate
NCI-H460 lung = tested on: NCI-H460 lung
MALME-3M melanoma = tested on: MALME-3M melanoma
SNB-19 CNS = tested on: SNB-19 CNS
MDA-N = tested on: MDA-N
RXF 393 renal = tested on: RXF 393 renal
NCI-H23 lung = tested on: NCI-H23 lung
SN12C renal = tested on: SN12C renal
MCF7 breast = tested on: MCF7 breast
EKVX NSCLC = tested on: EKVX NSCLC
A498 renal = tested on: A498 renal
A549 NSCLC = tested on: A549 NSCLC
MDA-MB-435 = tested on: MDA-MB-435
COLO 205 colon = tested on: COLO 205 colon
SK-MEL-28 melanoma = tested on: SK-MEL-28 melanoma
OVCAR-3 ovarian = tested on: OVCAR-3 ovarian
SF-295 CNS = tested on: SF-295 CNS
SK-MEL-2 melanoma = tested on: SK-MEL-2 melanoma
OVCAR-5 ovarian = tested on: OVCAR-5 ovarian
HOP-62 NSCLC = tested on: HOP-62 NSCLC
LOX IMVI melanoma = tested on: LOX IMVI melanoma
IGROV1 ovarian = tested on: IGROV1 ovarian
ACHN renal = tested on: ACHN renal
MOLT-4 leukemia = tested on: MOLT-4 leukemia
BT-549 breast = tested on: BT-549 breast
CCRF-CEM leukemia = tested on: CCRF-CEM leukemia
HCC-2998 colon = tested on: HCC-2998 colon
NCI-H522 lung = tested on: NCI-H522 lung
UACC-257 melanoma = tested on: UACC-257 melanoma
OVCAR-8 ovarian = tested on: OVCAR-8 ovarian
OVCAR-4 ovarian = tested on: OVCAR-4 ovarian
T-47D breast = tested on: T-47D breast
M14 melanoma = tested on: M14 melanoma
SW-620 colon = tested on: SW-620 colon
HT29 colon = tested on: HT29 colon
HCT-15 colon = tested on: HCT-15 colon
NCI-H226 lung = tested on: NCI-H226 lung
TK-10 renal = tested on: TK-10 renal
UACC-62 melanoma = tested on: UACC-62 melanoma
K-562 leukemia = tested on: K-562 leukemia

Q: Which results are given for `COc1cc2c(cc1OC)C13CCN4CC5CCOC6CC(=O)N2C1C6C5CC43` (stereo not drawn)?
A: TGI (HCT-116 colon): > 100 µM; TGI (SF-539 CNS): > 100 µM; TGI (SR leukemia): > 100 µM; TGI (CAKI-1 renal): > 100 µM; TGI (SK-MEL-5 melanoma): > 100 µM; TGI (HOP-92 NSCLC): > 100 µM; TGI (MDA-MB-231 breast): > 100 µM; TGI (SK-OV-3 ovarian): > 100 µM; TGI (SF-268 CNS): > 100 µM; TGI (KM12 colon): > 100 µM; TGI (HS 578T breast): > 100 µM; TGI (RPMI-8226 leukemia): > 100 µM; TGI (PC-3 prostate): > 100 µM; TGI (HL-60(TB) leukemia): > 100 µM; TGI (786-0 renal): > 100 µM; TGI (U251 CNS): > 100 µM; TGI (UO-31 renal): > 100 µM; TGI (NCI/ADR-RES ovarian): > 100 µM; TGI (DU-145 prostate): > 100 µM; TGI (NCI-H460 lung): > 100 µM; TGI (MALME-3M melanoma): > 100 µM; TGI (SNB-19 CNS): > 100 µM; TGI (MDA-N): > 100 µM; TGI (RXF 393 renal): > 100 µM; TGI (NCI-H23 lung): > 100 µM; TGI (SN12C renal): > 100 µM; TGI (MCF7 breast): > 100 µM; TGI (EKVX NSCLC): > 100 µM; TGI (A498 renal): > 100 µM; TGI (A549 NSCLC): > 100 µM; TGI (MDA-MB-435): > 100 µM; TGI (COLO 205 colon): > 100 µM; TGI (SK-MEL-28 melanoma): > 100 µM; TGI (OVCAR-3 ovarian): > 100 µM; TGI (SF-295 CNS): > 100 µM; TGI (SK-MEL-2 melanoma): > 100 µM; TGI (OVCAR-5 ovarian): > 100 µM; TGI (HOP-62 NSCLC): > 100 µM; TGI (LOX IMVI melanoma): > 100 µM; TGI (IGROV1 ovarian): > 100 µM; TGI (ACHN renal): > 100 µM; TGI (MOLT-4 leukemia): > 100 µM; TGI (BT-549 breast): > 100 µM; TGI (CCRF-CEM leukemia): > 100 µM; TGI (HCC-2998 colon): > 100 µM; TGI (NCI-H522 lung): > 100 µM; TGI (UACC-257 melanoma): > 100 µM; TGI (OVCAR-8 ovarian): > 100 µM; TGI (OVCAR-4 ovarian): > 100 µM; TGI (T-47D breast): > 100 µM; TGI (M14 melanoma): > 100 µM; TGI (SW-620 colon): > 100 µM; TGI (HT29 colon): > 100 µM; TGI (HCT-15 colon): > 100 µM; TGI (NCI-H226 lung): > 100 µM; TGI (TK-10 renal): > 100 µM; TGI (UACC-62 melanoma): > 100 µM

Q: How did the TGI (HCT-116 colon) turn out when `CO/N=C(\C)CCC#Cc1ccccc1C(=O)OC` was run?
A: > 10 µM

Q: And the TGI (SF-539 CNS)?
A: > 10 µM

Q: And the TGI (SR leukemia)?
A: > 10 µM

Q: What about the TGI (CAKI-1 renal) of the same compound?
A: > 10 µM

Q: And the TGI (SK-MEL-5 melanoma)?
A: > 10 µM

Q: And the TGI (MDA-MB-231 breast)?
A: > 10 µM

Q: And the TGI (SK-OV-3 ovarian)?
A: > 10 µM

Q: What about the TGI (SF-268 CNS) of the same compound?
A: > 10 µM

Q: And the TGI (KM12 colon)?
A: > 10 µM

Q: And the TGI (HS 578T breast)?
A: > 10 µM

Q: And the TGI (RPMI-8226 leukemia)?
A: > 10 µM

Q: What about the TGI (PC-3 prostate) of the same compound?
A: > 10 µM

Q: What about the TGI (HL-60(TB) leukemia) of the same compound?
A: > 10 µM

Q: What about the TGI (786-0 renal) of the same compound?
A: > 10 µM

Q: What about the TGI (U251 CNS) of the same compound?
A: > 10 µM

Q: What about the TGI (UO-31 renal) of the same compound?
A: > 10 µM

Q: What about the TGI (NCI/ADR-RES ovarian) of the same compound?
A: > 10 µM

Q: What about the TGI (DU-145 prostate) of the same compound?
A: > 10 µM

Q: And the TGI (K-562 leukemia)?
A: > 10 µM

Q: What about the TGI (NCI-H460 lung) of the same compound?
A: > 10 µM

Q: And the TGI (MALME-3M melanoma)?
A: > 10 µM

Q: What about the TGI (SNB-19 CNS) of the same compound?
A: > 10 µM

Q: And the TGI (MDA-N)?
A: > 10 µM

Q: What about the TGI (RXF 393 renal) of the same compound?
A: > 10 µM

Q: What about the TGI (NCI-H23 lung) of the same compound?
A: > 10 µM

Q: And the TGI (SN12C renal)?
A: > 10 µM

Q: What about the TGI (MCF7 breast) of the same compound?
A: > 10 µM

Q: And the TGI (EKVX NSCLC)?
A: > 10 µM

Q: What about the TGI (A498 renal) of the same compound?
A: > 10 µM

Q: And the TGI (A549 NSCLC)?
A: > 10 µM

Q: And the TGI (MDA-MB-435)?
A: > 10 µM

Q: What about the TGI (COLO 205 colon) of the same compound?
A: > 10 µM

Q: And the TGI (SK-MEL-28 melanoma)?
A: > 10 µM

Q: What about the TGI (OVCAR-3 ovarian) of the same compound?
A: > 10 µM

Q: What about the TGI (SF-295 CNS) of the same compound?
A: > 10 µM

Q: What about the TGI (SK-MEL-2 melanoma) of the same compound?
A: > 10 µM

Q: What about the TGI (OVCAR-5 ovarian) of the same compound?
A: > 10 µM

Q: What about the TGI (HOP-62 NSCLC) of the same compound?
A: > 10 µM

Q: And the TGI (LOX IMVI melanoma)?
A: > 10 µM

Q: What about the TGI (IGROV1 ovarian) of the same compound?
A: > 10 µM

Q: And the TGI (ACHN renal)?
A: > 10 µM

Q: What about the TGI (MOLT-4 leukemia) of the same compound?
A: > 10 µM

Q: What about the TGI (BT-549 breast) of the same compound?
A: > 10 µM

Q: And the TGI (CCRF-CEM leukemia)?
A: > 10 µM

Q: And the TGI (HCC-2998 colon)?
A: > 10 µM

Q: What about the TGI (UACC-257 melanoma) of the same compound?
A: > 10 µM

Q: What about the TGI (OVCAR-8 ovarian) of the same compound?
A: > 10 µM

Q: What about the TGI (OVCAR-4 ovarian) of the same compound?
A: > 10 µM

Q: And the TGI (T-47D breast)?
A: > 10 µM

Q: What about the TGI (M14 melanoma) of the same compound?
A: > 10 µM

Q: And the TGI (SW-620 colon)?
A: > 10 µM

Q: What about the TGI (HT29 colon) of the same compound?
A: > 10 µM

Q: What about the TGI (HCT-15 colon) of the same compound?
A: > 10 µM

Q: What about the TGI (NCI-H226 lung) of the same compound?
A: > 10 µM

Q: And the TGI (TK-10 renal)?
A: > 10 µM

Q: And the TGI (UACC-62 melanoma)?
A: > 10 µM
